SMILES strings stand for the structures.

For the assay, the target named is T1, Q46 protein aggregates (Homo sapiens, UniProt P42858).
T1 construct: fused on or other part: GST at the N-terminus, cut off with thrombin before the test to start aggregation; The wells held aggregated Q46 without GST
T1 sequence (P42858 with tags, fused parts or gaps with the stated changes, form open): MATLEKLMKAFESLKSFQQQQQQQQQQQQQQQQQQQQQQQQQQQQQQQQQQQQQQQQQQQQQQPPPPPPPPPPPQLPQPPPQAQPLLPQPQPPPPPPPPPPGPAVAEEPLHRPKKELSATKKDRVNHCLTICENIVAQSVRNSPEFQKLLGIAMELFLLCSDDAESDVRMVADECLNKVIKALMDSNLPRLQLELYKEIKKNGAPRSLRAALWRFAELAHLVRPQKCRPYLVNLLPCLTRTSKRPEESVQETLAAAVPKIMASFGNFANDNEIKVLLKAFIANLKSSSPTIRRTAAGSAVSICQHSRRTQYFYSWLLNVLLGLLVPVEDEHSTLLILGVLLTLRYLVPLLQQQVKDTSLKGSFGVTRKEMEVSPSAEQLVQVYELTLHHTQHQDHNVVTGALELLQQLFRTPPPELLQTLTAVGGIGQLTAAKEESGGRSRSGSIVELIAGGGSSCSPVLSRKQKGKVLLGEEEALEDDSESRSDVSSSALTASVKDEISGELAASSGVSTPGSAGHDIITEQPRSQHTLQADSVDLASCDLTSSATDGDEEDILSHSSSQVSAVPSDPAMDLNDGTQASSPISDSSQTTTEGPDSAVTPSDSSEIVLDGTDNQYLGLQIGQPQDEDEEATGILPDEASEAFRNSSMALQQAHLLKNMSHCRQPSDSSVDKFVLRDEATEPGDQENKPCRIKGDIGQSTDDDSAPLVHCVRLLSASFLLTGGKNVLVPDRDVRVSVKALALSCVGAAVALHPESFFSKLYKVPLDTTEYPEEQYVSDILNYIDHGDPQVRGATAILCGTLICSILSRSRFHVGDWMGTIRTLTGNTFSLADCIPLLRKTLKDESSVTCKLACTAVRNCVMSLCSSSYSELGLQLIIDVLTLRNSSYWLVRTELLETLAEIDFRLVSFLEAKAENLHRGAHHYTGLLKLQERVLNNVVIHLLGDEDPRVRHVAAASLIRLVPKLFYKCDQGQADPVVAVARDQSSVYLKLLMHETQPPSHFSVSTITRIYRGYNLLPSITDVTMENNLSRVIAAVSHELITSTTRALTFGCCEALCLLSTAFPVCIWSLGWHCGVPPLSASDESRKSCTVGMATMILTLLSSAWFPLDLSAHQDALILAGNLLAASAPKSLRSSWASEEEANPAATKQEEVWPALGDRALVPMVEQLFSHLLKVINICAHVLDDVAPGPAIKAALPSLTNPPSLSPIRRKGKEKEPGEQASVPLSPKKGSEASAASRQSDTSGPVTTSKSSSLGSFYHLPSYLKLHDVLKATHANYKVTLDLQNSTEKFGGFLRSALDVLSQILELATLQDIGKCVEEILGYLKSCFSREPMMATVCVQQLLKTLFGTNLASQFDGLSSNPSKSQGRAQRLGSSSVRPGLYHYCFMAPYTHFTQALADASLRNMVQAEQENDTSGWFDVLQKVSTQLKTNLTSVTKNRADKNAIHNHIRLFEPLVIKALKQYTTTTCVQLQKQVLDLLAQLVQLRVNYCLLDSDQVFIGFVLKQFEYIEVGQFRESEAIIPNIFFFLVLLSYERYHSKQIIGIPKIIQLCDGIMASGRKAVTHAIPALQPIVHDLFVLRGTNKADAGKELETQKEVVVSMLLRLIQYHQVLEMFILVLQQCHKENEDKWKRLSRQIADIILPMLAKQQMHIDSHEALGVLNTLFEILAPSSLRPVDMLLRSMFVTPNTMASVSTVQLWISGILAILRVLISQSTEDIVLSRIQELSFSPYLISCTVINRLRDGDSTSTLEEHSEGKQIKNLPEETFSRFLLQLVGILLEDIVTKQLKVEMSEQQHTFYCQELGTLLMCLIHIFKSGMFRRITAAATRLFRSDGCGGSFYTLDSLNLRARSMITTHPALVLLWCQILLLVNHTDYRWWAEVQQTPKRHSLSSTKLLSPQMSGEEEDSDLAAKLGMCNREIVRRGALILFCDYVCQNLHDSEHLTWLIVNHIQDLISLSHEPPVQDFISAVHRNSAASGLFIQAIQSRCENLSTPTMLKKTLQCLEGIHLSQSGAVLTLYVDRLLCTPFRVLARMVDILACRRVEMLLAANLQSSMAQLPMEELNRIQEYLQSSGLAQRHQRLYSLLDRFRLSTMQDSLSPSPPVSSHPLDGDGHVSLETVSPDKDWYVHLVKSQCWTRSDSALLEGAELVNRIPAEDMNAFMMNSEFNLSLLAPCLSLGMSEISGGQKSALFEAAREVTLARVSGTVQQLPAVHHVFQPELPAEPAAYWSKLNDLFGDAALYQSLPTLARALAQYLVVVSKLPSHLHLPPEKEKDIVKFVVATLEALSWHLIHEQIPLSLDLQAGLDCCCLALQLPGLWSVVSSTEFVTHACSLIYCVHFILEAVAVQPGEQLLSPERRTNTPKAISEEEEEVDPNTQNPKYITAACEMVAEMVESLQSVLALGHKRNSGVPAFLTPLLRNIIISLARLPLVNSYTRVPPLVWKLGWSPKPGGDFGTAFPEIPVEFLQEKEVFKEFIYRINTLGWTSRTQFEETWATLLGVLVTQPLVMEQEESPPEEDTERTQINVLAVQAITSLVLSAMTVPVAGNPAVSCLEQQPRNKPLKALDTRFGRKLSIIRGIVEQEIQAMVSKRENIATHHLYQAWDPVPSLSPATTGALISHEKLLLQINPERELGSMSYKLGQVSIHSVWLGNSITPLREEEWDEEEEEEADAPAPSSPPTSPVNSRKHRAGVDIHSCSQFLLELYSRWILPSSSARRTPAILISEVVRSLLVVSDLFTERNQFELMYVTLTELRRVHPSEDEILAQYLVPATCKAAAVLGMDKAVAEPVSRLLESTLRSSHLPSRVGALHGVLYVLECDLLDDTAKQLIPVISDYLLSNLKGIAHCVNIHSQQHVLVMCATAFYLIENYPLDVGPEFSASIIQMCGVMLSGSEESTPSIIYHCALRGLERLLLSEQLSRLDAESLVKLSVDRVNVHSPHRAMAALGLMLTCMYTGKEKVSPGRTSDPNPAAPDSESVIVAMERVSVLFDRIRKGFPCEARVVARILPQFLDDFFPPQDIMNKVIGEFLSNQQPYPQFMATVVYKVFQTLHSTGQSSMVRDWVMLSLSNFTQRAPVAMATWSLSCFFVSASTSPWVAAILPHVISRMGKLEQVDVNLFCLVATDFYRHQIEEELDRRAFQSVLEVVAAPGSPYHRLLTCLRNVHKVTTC
Description: Q46 radioligand binding assay (RBA). The note with it: 10 nM ligand [3H3]MK-3328. The method, then:
Q46 Radioligand Binding Assay
For radioligand binding assays (RBA) GST-Q46 protein was generated based on a previous publication (Scherzinger et al. Cell, Vol. 90, 549-558, Aug. 8, 1997). For experiments 33 μM GST-Q46 was incubated with 150 μg/mL thrombin in assay buffer (150 mM NaCl, 50 mM Tris pH 8.0) and 2 mM CaCl2 for 16 hours at 37° C. Aggregated Q46 was pelleted by centrifugation for 5 minutes at 13,000 rpm in a bench top centrifuge and re-dissolved in the same volume of assay buffer. Test compounds were prepared by titration in DMSO at 11 concentrations from 33 μM to 1 nM. For the RBA, Q46 protein aggregates and test compounds were pre-incubated in assay buffer for 20 minutes at room temperature, in 140 μL/well in a 96-well plate (pp, round bottom). Then, ligand was added in 10 μL/well and incubated for 60 minutes at 37° C. Final assay concentrations were 1 μM to 30 pM test compound, 5 μM Q46 protein (equivalent monomer concentration) and 10 nM ligand [^3H3]MK-3328 (Harrision et al., ACS Med. Chem. Lett., 2 (2011), pp 498-502). Samples were transferred onto GF/B filter plates and washed 2× with 200 μL PBS using a Filtermate Harvester. After drying filter plates for 1 hour at 37° C., the back of the plates were sealed with foil and 30 μL/well scintillation fluid (Packard MicroScint 40) added, incubated for 15 minutes in the dark and counted in a TopCount reader. For analysis, replicate data from independent assay plates were normalized towards 0% and 100% inhibition using control wells of vehicle (0% inhibition) and 3 μM unlabelled MK-3328 (100% inhibition). IC50 values were determined with a sigmoidal inhibition model with four variables (top, bottom, slope, IC50) in a global fit using the normalized replicate data.
The IC50 is the concentration at which inhibition is half-maximal. On to `N#Cc1ccncc1-c1cc2cc(OCc3cccnc3)ccc2o1` [3-[5-(pyridin-3-ylmethoxy)-1-benzofuran-2-yl]pyridine-4-carbonitrile], for which the IC50 is under 100 nM.

Turning to `N#Cc1cccc(C(=O)Nc2ccc3oc(-c4cccnc4)nc3c2)c1` [3-cyano-N-[2-(pyridin-3-yl)-1,3-benzoxazol-5-yl]benzamide], the IC50 was under 100 nM.

`COc1cncc(COc2cnc3oc(-c4cccnc4)nc3c2)c1` [3-methoxy-5-({[2-(pyridin-3-yl)-[1,3]oxazolo[5,4-b]pyridin-6-yl]oxy}methyl)pyridine] yielded an IC50 of under 100 nM.

As to `COc1ccc(COc2cnc3oc(-c4cccnc4)nc3c2)nn1` [3-methoxy-6-({[2-(pyridin-3-yl)-[1,3]oxazolo[5,4-b]pyridin-6-yl]oxy}methyl)pyridazine], the IC50 was under 100 nM.

Compound `COc1cnc2c(c1)CN(c1ccc3oc(-c4cccnc4)nc3c1)C2=O` [3-methoxy-6-[2-(pyridin-3-yl)-1,3-benzoxazol-5-yl]-5H,6H,7H-pyrrolo[3,4-b]pyridin-7-one] showed an IC50 of under 100 nM.

Consider `COc1ccc(-c2nc3cc(NC(=O)c4cccc(OC)c4)ccc3o2)cc1` [3-methoxy-N-[2-(4-methoxyphenyl)-1,3-benzoxazol-5-yl]benzamide], for which the IC50 was under 100 nM.

On to `COc1cc(C(=O)Nc2ccc3oc(-c4cccnc4)nc3c2)on1` [3-methoxy-N-[2-(pyridin-3-yl)-1,3-benzoxazol-5-yl]-1,2-oxazole-5-carboxamide], for which the half-inhibitory concentration (IC50) is under 100 nM.

Consider `COc1cccnc1C(=O)Nc1ccc2oc(-c3cccnc3)nc2c1` [3-methoxy-N-[2-(pyridin-3-yl)-1,3-benzoxazol-5-yl]pyridine-2-carboxamide], for which the IC50 fell in the range of 100 to 500 nM.

In the case of `O=C(Nc1ccc2oc(-c3cccnc3)nc2c1)c1cccc(Oc2ccccc2)c1` [3-phenoxy-N-[2-(pyridin-3-yl)-1,3-benzoxazol-5-yl]benzamide], the IC50 is under 100 nM.

On to `Cn1cc(COc2ccc3oc(-c4cnccc4C#N)cc3c2)cn1` [3-{5-[(1-methyl-1H-pyrazol-4-yl)methoxy]-1-benzofuran-2-yl}pyridine-4-carbonitrile], for which the IC50 is under 100 nM.

`COc1ccc(COc2ccc3oc(-c4cccc(C#N)c4)nc3c2)nc1` [3-{5-[(5-methoxypyridin-2-yl)methoxy]-1,3-benzoxazol-2-yl]benzonitrile]: the IC50 was under 100 nM.

For the compound `COc1ccc(COc2ccc3oc(-c4ccc[n+]([O-])c4)nc3c2)nc1` [3-{5-[(5-methoxypyridin-2-yl)methoxy]-1,3-benzoxazol-2-yl}pyridin-1-ium-1-olate], the IC50 is under 100 nM.

For `COc1ccc(C(C)Oc2cnc3oc(-c4cccnc4)nc3c2)nc1` (stereo not shown) [3-{6-[1-(5-methoxypyridin-2-yl)ethoxy]-[1,3]oxazolo[5,4-b]pyridin-2-yl}pyridine], the IC50 was 100 to 500 nM.

With `COc1ccc(C#Cc2cnc3oc(-c4cccnc4)nc3c2)cc1` [3-{6-[2-(4-methoxyphenyl)ethynyl]-[1,3]oxazolo[5,4-b]pyridin-2-yl}pyridine], the IC50 is under 100 nM.

As to `C(#Cc1cnc2oc(-c3cccnc3)nc2c1)c1cccnc1` [3-{6-[2-(pyridin-3-yl)ethynyl]-[1,3]oxazolo[5,4-b]pyridin-2-yl}pyridine], the IC50 was under 100 nM.

Compound `Brc1ccc(COc2cnc3oc(-c4cccnc4)nc3c2)nc1` [3-{6-[(5-bromopyridin-2-yl)methoxy]-[1,3]oxazolo[5,4-b]pyridin-2-yl}pyridine] displayed an IC50 of under 100 nM.

Consider `COc1ccc(COc2cnc3oc(-c4ccc[n+]([O-])c4)nc3c2)[n+]([O-])c1` [3-{6-[(5-methoxy-1-oxidopyridin-1-ium-2-yl)methoxy]-[1,3]oxazolo[5,4-b]pyridin-2-yl}pyridin-1-ium-1-olate], for which the IC50 was in the range of 100 to 500 nM.

`COc1ccc(COc2cnc3oc(-c4cccnc4)nc3c2)nc1` [3-{6-[(5-methoxypyridin-2-yl)methoxy]-[1,3]oxazolo[5,4-b]pyridin-2-yl}pyridine] displayed an IC50 of under 100 nM.

Regarding `COc1ccc(COc2cnc3oc(-c4cccnc4)nc3c2)cn1` [3-{6-[(6-methoxypyridin-3-yl)methoxy]-[1,3]oxazolo[5,4-b]pyridin-2-yl}pyridine], the IC50 is under 100 nM.

`COc1ccc(/C=C\c2cnc3oc(-c4cccnc4)nc3c2)cc1` [3-{6-[(Z)-2-(4-methoxyphenyl)ethenyl]-[1,3]oxazolo[5,4-b]pyridin-2-yl}pyridine] returned an IC50 of under 100 nM.

`BrC1=C(c2cc3cc(OCc4cccnc4)ccc3o2)N2CCN=C2S1` [3-{[(2-{2-bromo-5H,6H-imidazo[2,1-b][1,3]thiazol-3-yl}-1-benzofuran-5-yl)oxy]methyl}pyridine] displayed an IC50 of under 100 nM.

`C1=C(c2cc3cc(OCc4cccnc4)ccc3o2)N2CCN=C2S1` [3-{[(2-{5H,6H-imidazo[2,1-b][1,3]thiazol-3-yl}-1-benzofuran-5-yl)oxy]methyl}pyridine] returned an IC50 of under 100 nM.

Regarding `N#Cc1cnccc1-c1cc2cc(OCC3=CSC4=NCCN34)ccc2o1` [4-(5-{5H,6H-imidazo[2,1-b][1,3]thiazol-3-ylmethoxy}-1-benzofuran-2-yl)pyridine-3-carbonitrile], the IC50 is under 100 nM.

Take `N#Cc1cnccc1-c1cc2cc(OCc3cnn(CCO)c3)ccc2o1` [4-(5-{[1-(2-hydroxyethyl)-1H-pyrazol-4-yl]methoxy}-1-benzofuran-2-yl)pyridine-3-carbonitrile]: the IC50 was under 100 nM.

`COCCn1cc(COc2ccc3oc(-c4ccncc4C#N)cc3c2)cn1` [4-(5-{[1-(2-methoxyethyl)-1H-pyrazol-4-yl]methoxy}-1-benzofuran-2-yl)pyridine-3-carbonitrile] showed an IC50 of under 100 nM.

With `CSc1ccc(C(=O)Nc2ccc3oc(-c4cccnc4)nc3c2)cc1` [4-(methylsulfanyl)-N-[2-(pyridin-3-yl)-1,3-benzoxazol-5-yl]benzamide], the IC50 is under 100 nM.

As for `O=C(Nc1ccc2oc(-c3cccnc3)nc2c1)c1ccc(COc2ccccc2)cc1` [4-(phenoxymethyl)-N-[2-(pyridin-3-yl)-1,3-benzoxazol-5-yl]benzamide], the IC50 is under 100 nM.

`N#Cc1cnccc1-c1cc2cc(OCc3cn[nH]c3)ccc2o1` [4-[5-(1H-pyrazol-4-ylmethoxy)-1-benzofuran-2-yl]pyridine-3-carbonitrile] returned an IC50 of under 100 nM.

In the case of `N#Cc1cnccc1-c1cc2cc(Oc3cccnc3)ccc2o1` [4-[5-(pyridin-3-yloxy)-1-benzofuran-2-yl]pyridine-3-carbonitrile], the IC50 is under 100 nM.

`N#Cc1cnccc1-c1cc2cc(OCc3cncnc3)ccc2o1` [4-[5-(pyrimidin-5-ylmethoxy)-1-benzofuran-2-yl]pyridine-3-carbonitrile] registered an IC50 of under 100 nM.

`CN(C)CCn1cc(COc2ccc3oc(-c4ccncc4C#N)cc3c2)cn1` [4-[5-({1-[2-(dimethylamino)ethyl]-1H-pyrazol-4-yl}methoxy)-1-benzofuran-2-yl]pyridine-3-carbonitrile]: the IC50 was under 100 nM.

Turning to `Cc1cncc(Oc2ccc(C(=O)Nc3ccc4oc(-c5cccnc5)nc4c3)cc2)n1` [4-[(6-methylpyrazin-2-yl)oxy]-N-[2-(pyridin-3-yl)-1,3-benzoxazol-5-yl]benzamide], the IC50 is under 100 nM.

Compound `N#Cc1ccc(C(=O)Nc2ccc3oc(-c4cccnc4)nc3c2)cc1` [4-cyano-N-[2-(pyridin-3-yl)-1,3-benzoxazol-5-yl]benzamide] came in with an IC50 of under 100 nM.

Compound `O=C(Nc1ccc2oc(-c3cccnc3)nc2c1)c1cc(O)ccn1` [4-hydroxy-N-[2-(pyridin-3-yl)-1,3-benzoxazol-5-yl]pyridine-2-carboxamide] had an IC50 of 100 to 500 nM.

For the compound `COc1ccnc(COc2cnc3oc(-c4cccnc4)nc3c2)c1` [4-methoxy-2-({[2-(pyridin-3-yl)-[1,3]oxazolo[5,4-b]pyridin-6-yl]oxy}methyl)pyridine], the IC50 is under 100 nM.

`COc1ccnc(C(=O)Nc2ccc3oc(-c4ccc(=O)n(C)n4)nc3c2)c1` [4-methoxy-N-[2-(1-methyl-6-oxo-1,6-dihydropyridazin-3-yl)-1,3-benzoxazol-5-yl]pyridine-2-carboxamide] yielded a 50% inhibitory concentration (IC50) of under 100 nM.

Consider `COc1ccc(C(=O)Nc2ccc3oc(-c4cccc(C)c4)nc3c2)cc1` [4-methoxy-N-[2-(3-methylphenyl)-1,3-benzoxazol-5-yl]benzamide], for which the half-maximal inhibitory concentration (IC50) is under 100 nM.

In turn, `COc1ccc(C(=O)Nc2cnc3oc(-c4cccc(C)c4)nc3c2)cc1` [4-methoxy-N-[2-(3-methylphenyl)[1,3]oxazolo[5,4-b]pyridin-6-yl]benzamide] yielded an IC50 of under 100 nM.

`COc1ccc(C(=O)Nc2ccc3oc(-c4ccc(OC)cc4)nc3c2)cc1` [4-methoxy-N-[2-(4-methoxyphenyl)-1,3-benzoxazol-5-yl]benzamide] registered an IC50 of under 100 nM.

In turn, `COc1ccc(C(=O)Nc2ccc3oc(-c4cccnc4)nc3c2)cc1` [4-methoxy-N-[2-(pyridin-3-yl)-1,3-benzoxazol-5-yl]benzamide] had an IC50 of under 100 nM.

For the origin of these results see patent US12258355B2, “Probes for imaging huntingtin protein” (CHDI Foundation, Inc., priority 2014, dated 2025).
